Results from patent publication US11607419B2, “Inhibitors of RAC1 and uses thereof for inducing bronchodilatation” (INSTITUT NATIONAL DE LA SANTE ET DE LA RECHERCHE MEDICALE …, priority 2017, dated 2023).

Key:
RAC1 [1] = biological target: T1, RAC1 (Homo sapiens, UniProt P63000)
RAC1 [2] = biological target: T1, RAC1; details: compared with NSC23766

Row | IC50 (RAC1 [1]) [nM] | melting point [°C] | Relative activity (NSC23766) (RAC1 [2]) | Compound
1 | – | 166 | – | O=[N+]([O-])c1ccc(S(=O)(=O)Nc2ccccc2F)cc1 [Example 5]
2 | – | 190 | – | COc1ccc(OC)c(NS(=O)(=O)c2ccc(NC(=O)CCl)cc2)c1 [(31), 2-chloro-N-(4-(N-(2,5-dimethoxyphenyl)sulfamoyl)phenyl) acetamide]
3 | – | 115 | – | COc1ccc(NS(=O)(=O)c2ccc(N)cc2)c(OC)c1 [Example 6, 4-amino-N-(2,4-dimethoxyphenyl)benzenesulfonamide]
4 | – | 161 | – | COc1ccc(NS(=O)(=O)c2ccc([N+](=O)[O-])cc2)c(OC)c1 [Example 1, N-(2,4-dimethoxyphenyl)-4-nitrobenzenesulfonamide]
5 | – | 180.3 | – | COc1ccc(OC)c(NS(=O)(=O)c2ccc(NC(=O)CCS(=O)(=O)c3ccc(C)cc3)cc2)c1 [(25), N-(4-(N-(2,5-dimethoxyphenyl)sulfamoyl)phenyl)-3-tosyl-propanamide]
6 | – | 156.8 | – | COc1cccc(NS(=O)(=O)c2ccc(NC(=O)CCSc3ccc(C)cc3)cc2)c1 [(23), N-(4-(N-(3-methoxyphenyl)sulfamoyl)phenyl)-3-(p-tolylthio) propanamide]
7 | – | 48 | – | COc1ccc(OC)c(N(C)S(=O)(=O)c2ccc(NC(=O)CCSc3ccc(C)cc3)cc2)c1 [(26), N-(4-(N-(2,5-dimethoxyphenyl)-N-methylsulfamoyl)phenyl)-3-(p-tolylthio)propanamide]
8 | – | 162 | – | Cc1ccc(SCCC(=O)Nc2ccc(S(=O)(=O)Nc3ccccc3F)cc2)cc1 [(30), N-(4-(N-(2-fluorophenyl)sulfamoyl)phenyl)-3-(p-tolylthio) propanamide]
9 | – | 200 | – | C#CC(=O)Nc1ccc(S(=O)(=O)Nc2cc(OC)ccc2OC)cc1 [(27), N-(4-(N-(2,5-dimethoxyphenyl)sulfamoyl)phenyl) propiolamide]
10 | – | 190 | – | Nc1ccc(S(=O)(=O)Nc2ccccc2F)cc1 [Example 10]
11 | – | 148.1 | – | COc1ccc(OC)c(NS(=O)(=O)c2ccc(NC(=O)CC[S+]([O-])c3ccc(C)cc3)cc2)c1 (stereo not drawn) [(24), N-(4-(N-(2,5-dimethoxyphenyl)sulfamoyl)phenyl)-3-(p-tolylsulfinyl)propanamide]

Continued, compound first:

Row | Compound | IC50 (RAC1 [1]) [nM] | melting point [°C] | Relative activity (NSC23766) (RAC1 [2])
12 | COc1ccc(OC)c(NS(=O)(=O)c2ccc(NC(=O)CCOc3ccc(C)cc3)cc2)c1 [(6), N-(4-(N-(2,5-dimethoxyphenyl)sulfamoyl)phenyl)-3-(p-tolyloxy)propanamide] | 1 | 145 | >
13 | COc1ccc(OC)c(NS(=O)(=O)c2ccc([N+](=O)[O-])cc2)c1 [(9), N-(2,5-dimethoxyphenyl)-4-nitrobenzenesulfonamide] | – | 165 | –
14 | COc1ccc(OC)c(NS(=O)(=O)c2ccc(NC(=O)C#C[Si](C)(C)C)cc2)c1 | – | 84 | –
15 | COc1ccc(NS(=O)(=O)c2ccc(NC(=O)CCSc3ccc(C)cc3)cc2)c(OC)c1 [(1), N-(4-(N-(2,4-dimethoxyphenyl)sulfamoyl)phenyl)-3-(p-tolylthio)propanamide] | 30 | – | >
16 | COc1ccccc1NS(=O)(=O)c1ccc(NC(=O)CSc2ccc(C)cc2)cc1 [(20), N-(4-(N-(2-methoxyphenyl)sulfamoyl)phenyl)-2-(p-tolylthio) acetamide] | 1 | 169.3 | >
17 | COc1ccc(OC)c(NC(=O)c2ccc(NC(=O)CCSc3ccc(C)cc3)cc2)c1 [(7), N-(2,5-dimethoxyphenyl)-4-(3-(p-tolylthio)propanamido) benzamide] | – | 153 | –
18 | COc1ccc(OC)c(NS(=O)(=O)c2ccc(NC(=O)CCCSc3ccc(C)cc3)cc2)c1 [(8)] | – | 153 | –
19 | C=CC(=O)Nc1ccc(S(=O)(=O)Nc2cc(OC)ccc2OC)cc1 [(5), N-(4-(N-(2,5-dimethoxyphenyl)sulfamoyl)phenyl)acrylamide] | 0.1 | 126 | >
20 | COc1ccccc1NS(=O)(=O)c1ccc([N+](=O)[O-])cc1 [(17), N-(2-methoxyphenyl)-4-nitrobenzenesulfonamide] | 1 | 156.5 | >
21 | COc1cccc(NS(=O)(=O)c2ccc([N+](=O)[O-])cc2)c1 [(21), N-(3-methoxyphenyl)-4-nitrobenzenesulfonamide] | – | 119.4 | –
22 | COc1ccc(OC)c(NS(=O)(=O)c2ccc(NC(=O)CCCc3ccc(C)cc3)cc2)c1 [(3), N-(4-(N-(2,5-dimethoxyphenyl)sulfamoyl)phenyl)-4-(p-tolyl) butanamide] | – | 126 | –
23 | COc1ccc(OC)c(NS(=O)(=O)c2ccc(NC(=O)CSc3ccc(C)cc3)cc2)c1 [(4)] | – | 126 | –
24 | COc1ccccc1NS(=O)(=O)c1ccc(N)cc1 [(18), 4-amino-N-(2-methoxyphenyl)-benzenesulfonamide] | 1 | – | >
25 | CCC(=O)Nc1ccc(S(=O)(=O)Nc2cc(OC)ccc2OC)cc1 [(11), N-(4-(N-(2,5-dimethoxyphenyl)sulfamoyl)phenyl) propionamide] | – | 170 | –
26 | COc1cccc(NS(=O)(=O)c2ccc(N)cc2)c1 [(22)] | 1 | – | >
27 | C=CC(=O)Nc1ccc(S(=O)(=O)N(C(=O)C=C)c2cc(OC)ccc2OC)cc1 [(16), N-acryloyl-N′-(4-(N-(2,5-dimethoxyphenyl)sulfamoyl)phenyl) acrylamide] | – | 220.8 | –
28 | COc1ccccc1NS(=O)(=O)c1ccc(NC(=O)CCSc2ccc(C)cc2)cc1 [(19), N-(4-(N-(2-methoxyphenyl)sulfamoyl)phenyl)-3-(p-tolylthio) propanamide] | 1 | 143.5 | >
29 | COc1ccc(OC)c(NS(=O)(=O)c2ccc(N)cc2)c1 [(10), 4-amino-N-(2,5-dimethoxyphenyl)benzenesulfonamide] | – | 126 | –
